Reference: PMC11406361, “Several orphan solute carriers functionally identified as organic cation transporters: Substrates specificity compared with known cation transporters” (The Journal of Biological Chemistry, 2024)

Tests used:
SLC22A15 = biological target: T1, SLC22A15 (Homo sapiens, UniProt Q8IZD6); test: Uptake ratio screen, SLC22A15-overexpressing HEK293 over empty vector cells; type: cell-based; conditions: 2.5 μM (nicotine 10 μM), 2 min
T1 construct: by amplifying the entire gene-of-interest within the HEK293 genome via a long-range PCR
T1 sequence (Q8IZD6 whole entry): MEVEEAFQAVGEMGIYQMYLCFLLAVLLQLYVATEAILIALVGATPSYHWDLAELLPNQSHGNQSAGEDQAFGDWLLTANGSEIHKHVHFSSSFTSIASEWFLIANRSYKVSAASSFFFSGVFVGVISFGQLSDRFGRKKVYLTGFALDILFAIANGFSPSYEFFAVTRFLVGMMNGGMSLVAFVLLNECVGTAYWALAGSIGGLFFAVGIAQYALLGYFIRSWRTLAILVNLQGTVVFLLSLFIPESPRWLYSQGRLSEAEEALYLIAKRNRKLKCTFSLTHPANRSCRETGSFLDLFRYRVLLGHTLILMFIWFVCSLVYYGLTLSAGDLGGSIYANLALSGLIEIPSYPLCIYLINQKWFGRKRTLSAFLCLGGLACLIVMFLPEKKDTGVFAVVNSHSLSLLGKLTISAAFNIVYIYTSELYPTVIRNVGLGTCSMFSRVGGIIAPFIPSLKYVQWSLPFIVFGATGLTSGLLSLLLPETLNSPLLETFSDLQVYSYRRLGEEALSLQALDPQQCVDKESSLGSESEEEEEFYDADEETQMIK
Method: (§1) Typically discussed substrates of the proton organic-cation antiporter ([14]) are highlighted in dark green in Figure 1.
(§2) In preparation for transport experiments, 24-well plates were pre-coated with poly-D-lysine (Sigma-Aldrich) and 300,000 cells were plated per well and incubated for 48 h. Firstly, the 24-well plate was placed on a heating plate at 37 °C, and the cells were washed with 37 °C HBSS^+ buffer (Hank’s balanced salt solution supplemented with 10 mM Hepes and adjusted to pH 7.4; Thermo Fisher Scientific). The substance-of-interest, which was diluted in 37 °C HBSS^+ to a desired concentration, was added to the cells for exactly 2 min. […] The uptake was stopped with ice-cold HBSS^+, and the 24-well plate was removed from the heating plate. The cells were washed twice with the cold HBSS^+ before they were lysed for 15 min with 80% (v/v) acetonitrile containing the respective internal standard for mass spectrometry. For variations in seeded cell numbers between the cell lines, several wells were lysed in RIPA buffer and used for total protein quantification using a bicinchoninic assay ([74]) and bovine serum albumin as calibration.
(§3) The intracellular drug concentrations after transport experiments were analyzed by high-performance liquid chromatography coupled to tandem mass spectrometry analysis. The HPLC consisted of a Shimadzu Nexera HPLC System with a SIL-30AC autosampler, a LC-30AD pump, a CTO-20AC column oven, and a CBM-20A controller (Shimadzu). The reverse-phase chromatography of compounds was accomplished with a Brownlee SPP RP-Amide column with 4.6 × 100 mm inner dimensions, a particle size of 2.7 μm, and a preceding Phenomenex C-18 guard column. The mobile phase was composed of an organic additive with acetonitrile:methanol 6:1 (v/v) in total concentrations between 3% and 50% (v/v) and 0.1% (v/v) formic acid in the aqueous component of the eluent. During separation, the column oven was held at 40 °C and the mobile phase was maintained at a flow rate of 300 or 400 μl/min. After separation, the detection of substances was performed with an API 4000 tandem mass spectrometer (AB SCIEX, https://sciex.com/support/software-support/software-downloads), followed by quantification of results with the Analyst software (AB SCIEX, version 1.6.2). The composition of chromatographic conditions, as well as detailed mass spectrometric detection parameters, are listed in Table S5.
(§4) Transport-mediated net uptake was determined as fold-increase of transporter-overexpressing cells over empty vector–transfected control cells.

SLC35F4 = biological target: T2, SLC35F4 (Homo sapiens, UniProt A4IF30); test: Uptake ratio screen, SLC35F4-overexpressing HEK293 over empty vector cells; type: cell-based; parameters: by amplifying the entire gene-of-interest within the HEK293 genome via a long-range PCR; conditions: 2.5 μM, 2 min
T2 sequence (A4IF30 1-521): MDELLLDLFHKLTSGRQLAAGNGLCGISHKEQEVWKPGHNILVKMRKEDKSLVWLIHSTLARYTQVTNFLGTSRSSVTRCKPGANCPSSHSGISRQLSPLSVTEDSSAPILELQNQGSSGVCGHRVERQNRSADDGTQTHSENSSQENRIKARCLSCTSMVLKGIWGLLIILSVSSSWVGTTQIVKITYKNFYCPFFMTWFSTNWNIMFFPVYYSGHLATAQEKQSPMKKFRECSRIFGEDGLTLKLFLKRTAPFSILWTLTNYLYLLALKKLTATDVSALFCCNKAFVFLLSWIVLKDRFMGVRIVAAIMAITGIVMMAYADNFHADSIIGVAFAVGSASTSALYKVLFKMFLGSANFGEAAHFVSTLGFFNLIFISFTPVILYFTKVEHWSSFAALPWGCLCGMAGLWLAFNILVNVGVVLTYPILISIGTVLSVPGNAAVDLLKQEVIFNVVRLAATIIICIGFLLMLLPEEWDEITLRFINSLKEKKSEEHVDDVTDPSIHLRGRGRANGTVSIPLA
Method: as §1, §2, §3, §4

SLC35F2 = biological target: T3, SLC35F2 (Homo sapiens, UniProt Q8IXU6); conditions: SLC35F2; ratio of Vmax over KM
T3 sequence (Q8IXU6 1-374): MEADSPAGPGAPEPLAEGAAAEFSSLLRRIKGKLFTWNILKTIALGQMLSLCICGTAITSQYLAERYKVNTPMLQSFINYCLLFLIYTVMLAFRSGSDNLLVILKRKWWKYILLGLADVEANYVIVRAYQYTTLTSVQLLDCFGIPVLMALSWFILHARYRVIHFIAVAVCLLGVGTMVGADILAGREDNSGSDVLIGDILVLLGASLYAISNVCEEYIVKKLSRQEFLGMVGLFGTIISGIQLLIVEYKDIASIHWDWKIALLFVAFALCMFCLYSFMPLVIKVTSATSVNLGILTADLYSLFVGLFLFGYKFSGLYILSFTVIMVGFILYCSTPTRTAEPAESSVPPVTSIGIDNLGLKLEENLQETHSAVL

SLC35G3 [1] = biological target: T4, SLC35G3 (Homo sapiens, UniProt Q8N808); conditions: ratio of Vmax over KM
T4 sequence (Q8N808 whole entry): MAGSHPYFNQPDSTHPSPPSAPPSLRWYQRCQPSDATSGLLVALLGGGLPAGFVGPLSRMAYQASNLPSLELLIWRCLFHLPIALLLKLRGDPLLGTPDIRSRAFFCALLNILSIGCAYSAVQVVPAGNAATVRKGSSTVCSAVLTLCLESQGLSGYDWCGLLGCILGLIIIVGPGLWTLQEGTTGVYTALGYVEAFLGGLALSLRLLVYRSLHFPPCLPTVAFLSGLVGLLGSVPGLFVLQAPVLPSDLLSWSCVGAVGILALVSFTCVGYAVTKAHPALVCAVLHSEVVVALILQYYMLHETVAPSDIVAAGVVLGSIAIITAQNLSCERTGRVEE

SLC35G3 [2] = biological target: T4, SLC35G3; test: Uptake ratio screen, SLC35G3-overexpressing HEK293 over empty vector cells; type: cell-based; parameters: by amplifying the entire gene-of-interest within the HEK293 genome via a long-range PCR; conditions: 2.5 μM substrate, 2 min, HEK293
SLC35E2A [3] = biological target: T5, SLC35E2A (Homo sapiens, UniProt P0CK97); test: Uptake ratio screen, SLC35E2A-overexpressing HEK293 over empty vector cells; type: cell-based; parameters: by amplifying the entire gene-of-interest within the HEK293 genome via a long-range PCR; conditions: 2.5 μM, 2 min
T5 sequence (P0CK97 whole entry): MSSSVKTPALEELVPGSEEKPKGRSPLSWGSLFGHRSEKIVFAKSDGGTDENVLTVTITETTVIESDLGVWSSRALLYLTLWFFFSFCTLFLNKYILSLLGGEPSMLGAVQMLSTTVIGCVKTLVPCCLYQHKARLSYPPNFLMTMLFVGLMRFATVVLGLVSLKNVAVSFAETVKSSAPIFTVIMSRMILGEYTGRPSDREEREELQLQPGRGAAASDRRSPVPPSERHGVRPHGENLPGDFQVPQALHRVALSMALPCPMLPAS
Method: as §1, §2
(§5) The intracellular drug concentrations after transport experiments were analyzed by high-performance liquid chromatography coupled to tandem mass spectrometry analysis. The HPLC consisted of a Shimadzu Nexera HPLC System with a SIL-30AC autosampler, a LC-30AD pump, a CTO-20AC column oven, and a CBM-20A controller (Shimadzu). The reverse-phase chromatography of compounds was accomplished with a Brownlee SPP RP-Amide column with 4.6 × 100 mm inner dimensions, a particle size of 2.7 μm, and a preceding Phenomenex C-18 guard column. […] After separation, the detection of substances was performed with an API 4000 tandem mass spectrometer (AB SCIEX, https://sciex.com/support/software-support/software-downloads), followed by quantification of results with the Analyst software (AB SCIEX, version 1.6.2). […]
as §4

SLC35F5 = biological target: T6, SLC35F5 (Homo sapiens, UniProt Q8WV83); test: Uptake ratio screen, SLC35F5-overexpressing HEK293 over empty vector cells; type: cell-based; parameters: by amplifying the entire gene-of-interest within the HEK293 genome via a long-range PCR; conditions: 2.5 μM, 2 min
T6 sequence (Q8WV83 1-523): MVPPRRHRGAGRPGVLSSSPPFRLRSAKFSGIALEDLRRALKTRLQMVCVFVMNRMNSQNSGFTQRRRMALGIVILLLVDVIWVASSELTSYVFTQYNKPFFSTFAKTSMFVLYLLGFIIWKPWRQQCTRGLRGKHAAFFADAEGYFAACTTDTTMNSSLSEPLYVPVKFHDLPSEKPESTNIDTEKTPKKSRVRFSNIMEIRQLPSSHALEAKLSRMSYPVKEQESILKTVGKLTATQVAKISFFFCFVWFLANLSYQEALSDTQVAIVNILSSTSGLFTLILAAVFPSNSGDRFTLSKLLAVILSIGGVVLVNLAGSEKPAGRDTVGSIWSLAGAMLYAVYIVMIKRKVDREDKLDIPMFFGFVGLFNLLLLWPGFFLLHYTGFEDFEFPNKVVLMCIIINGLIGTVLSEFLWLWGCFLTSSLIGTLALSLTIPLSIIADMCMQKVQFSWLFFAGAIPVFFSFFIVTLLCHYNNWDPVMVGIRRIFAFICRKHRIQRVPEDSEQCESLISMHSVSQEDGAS
Method: as §1, §2, §3, §4

SLC35E2A [4] = biological target: T5, SLC35E2A; conditions: ratio of Vmax over KM
hCMEC/D3 cell line = test: Antiport (exchange) of diphenhydramine and nalmefene in hCMEC/D3 cells; type: cell-based, human; conditions: hCMEC/D3 preloaded with DPH, within 2 min, unpublished data
SLC19A2 = biological target: T7, SLC19A2 (Homo sapiens, UniProt O60779); test: Uptake ratio screen, SLC19A2-overexpressing HEK293 over empty vector cells; type: cell-based; conditions: 2.5 μM, 2 min
T7 construct: expressed in transfected cells
T7 sequence (O60779 1-497): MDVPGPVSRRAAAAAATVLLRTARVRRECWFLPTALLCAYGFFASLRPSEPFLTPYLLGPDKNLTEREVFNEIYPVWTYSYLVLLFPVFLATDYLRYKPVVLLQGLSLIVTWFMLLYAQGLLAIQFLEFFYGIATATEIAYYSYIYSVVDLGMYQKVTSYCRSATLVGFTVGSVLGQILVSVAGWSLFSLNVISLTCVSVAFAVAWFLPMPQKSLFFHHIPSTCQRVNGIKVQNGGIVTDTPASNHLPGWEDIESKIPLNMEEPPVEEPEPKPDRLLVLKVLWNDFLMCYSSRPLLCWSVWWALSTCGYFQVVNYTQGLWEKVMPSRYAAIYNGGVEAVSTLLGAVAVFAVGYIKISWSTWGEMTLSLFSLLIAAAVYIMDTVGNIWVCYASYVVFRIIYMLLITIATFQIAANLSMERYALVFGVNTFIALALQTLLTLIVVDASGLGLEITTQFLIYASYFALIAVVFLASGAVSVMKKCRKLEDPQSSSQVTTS
Method: as §1, §2, §5, §4

Compound: COC(=O)[C@H]1[C@@H](OC(=O)c2ccccc2)C[C@@H]2CC[C@H]1N2C [Cocaine]
- Uptake by SLC22A15 (in words) (SLC22A15): significantly increased the uptake
- Uptake by SLC35F4 (in words) (SLC35F4): enhanced cell uptake
- Clint (±SEM) (SLC35F2): 2.58 (±2.11) μl × mg protein^-1 × min^-1
- Clint (±SEM) (SLC35G3 [1]): 1.59 (±0.57) μl × mg protein^-1 × min^-1
- Uptake data for SLC35G3, mean value (fold-increase over empty vector control) (SLC35G3 [2]): 2.02
- Uptake by SLC35E2A (in words) (SLC35E2A [3]): relatively high activity
- Uptake by SLC35F5 (in words) (SLC35F5): highest uptake rates
- Clint (±SEM) (SLC35E2A [4]): 4.14 (±1.59) μl × mg protein^-1 × min^-1

Compound: CN(C)CCOC(c1ccccc1)c1ccccc1 [Diphenhydramine]
- Share of substrates exchanged (antiport) (hCMEC/D3 cell line): approximately 60%

Compound: COc1ccc2c3c1O[C@H]1C(=O)CC[C@@]4(O)[C@@H](C2)N(C)CC[C@]314 [Oxycodone]
- Uptake by SLC22A15 (in words) (SLC22A15): significantly increased the uptake
- Uptake data for SLC35G3, mean value (fold-increase over empty vector control) (SLC35G3 [2]): 1.86
- Uptake by SLC19A2 (in words) (SLC19A2): enhance cell uptake
- Uptake by SLC35E2A (in words) (SLC35E2A [3]): relatively high activity
- Clint (±SEM) (SLC35E2A [4]): 3.44 (±1.49) μl × mg protein^-1 × min^-1
